Test results taken from patent US20240239812A1, “MACROCYCLIC 2-ALLYLTETRAHYDROFURANS AS INHIBITORS OF MCL-1” (JANSSEN PHARMACEUTICA NV, priority 2021, published 2024).
Like-named read-outs stand apart in the source and are kept apart here.

Columns and labels:
[1] = biological target: Myeloid Cell Leukemia 1 (Mcl-1) (Homo sapiens (Human), UniProt Q07820); experiment: Terbium labeled Mcl-1 HTRF binding assay, displacement of Cy5-labeled BIM BH3 peptide; settings: 25 pM Tb-Mcl-1, 8 nM Cy5 Bim peptide, 60 minutes at room temperature, read-out: Tb-MCL1 Ki
Sequence of Myeloid Cell Leukemia 1 (Mcl-1) (Q07820 whole entry): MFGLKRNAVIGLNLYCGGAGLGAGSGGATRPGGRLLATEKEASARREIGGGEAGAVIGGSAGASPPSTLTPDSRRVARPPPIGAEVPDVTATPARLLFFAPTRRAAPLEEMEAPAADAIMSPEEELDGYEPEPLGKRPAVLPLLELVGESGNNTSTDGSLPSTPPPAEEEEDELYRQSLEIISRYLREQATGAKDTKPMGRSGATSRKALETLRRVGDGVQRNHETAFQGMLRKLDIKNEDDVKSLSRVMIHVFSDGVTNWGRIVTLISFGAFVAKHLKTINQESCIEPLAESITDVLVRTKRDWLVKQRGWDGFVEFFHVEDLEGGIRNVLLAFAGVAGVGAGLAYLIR
Description: Terbium labeled Myeloid Cell Leukemia 1 (Mcl-1) homogeneous time-resolved fluorescence (HTRF) binding assay utilizing the BIM BH3 peptide (H2N—(C/Cy5Mal) WIAQELRRIGDEFN-OH) as the binding partner for Mcl-1.
This assay evaluated inhibition of the BH3 domain: Mcl-1 interaction by measuring the displacement of Cy5-labeled BIM BH3 peptide (H2N—(C/Cy5Mal) WIAQELRRIGDEFN-OH) in the HTRF assay format.
The following assay and stock buffers were prepared for use in the assay: (a) Stock buffer: 10 mM Tris-HCl, pH=7.5+150 mM NaCl, filtered, sterilized, and stored at 4° C.; and (b) 1× assay buffer, where the following ingredients were added fresh to stock buffer: 2 mM dithiothreitol (DTT), 0.0025% Tween-20, 0.1 mg/mL bovine serum albumin (BSA). The 1×Tb-Mcl-1+Cy5 Bim peptide solution was prepared by diluting the protein stock solution using the 1× assay buffer (b) to 25 pM Tb-Mcl-1 and 8 nM Cy5 Bim peptide.
Using the Acoustic ECHO, 100 nL of 100× test compound(s) were dispensed into individual wells of a white 384-well Perkin Elmer Proxiplate, for a final compound concentration of 1× and final DMSO concentration of 1%. Inhibitor control and neutral control (NC, 100 nL of 100% DMSO) were stamped into columns 23 and 24 of assay plate, respectively. Into each well of the plate was then dispensed 10 μL of the 1×Tb-Mcl-1+Cy5 Bim peptide solution. The plate was centrifuged with a cover plate at 1000 rpm for 1 minute, then incubated for 60 minutes at room temperature with plates covered.
The TR-FRET signal was read on an BMG PHERAStar FSX MicroPlate Reader at room temperature using the HTRF optic module (HTRF: excitation: 337 nm, light source: laser, emission A: 665 nm, emission B: 620 nm, integration start: 60 μs, integration time: 400 μs).
The BMG PHERAStar FSX MicroPlate Reader was used to measure fluorescence intensity at two emission wavelengths—665 nm and 620 nm—and report relative fluorescence units (RFU) for both emissions, as well as a ratio of the emissions (665 nm/620 nm)*10,000. The RFU values were normalized to percent inhibition as follows:
% inhibition(((NC−IC)−(compound−IC))/(NC−IC))*100
where IC (inhibitor control, low signal)=mean signal of 1× Tb-MCl-1+Cy5 Bim peptide+inhibitor control or 100% inhibition of Mcl-1; NC (neutral control, high signal)=mean signal 1×Tb-MCl-1+Cy5 Bim peptide with DMSO only or 0% inhibition
An 11-point dose response curve was generated to determine IC50 values (using GenData) based on the following equation:
where Y=% inhibition in the presence of X inhibitor concentration; Top=100% inhibition derived from the IC (mean signal of Mcl-1+inhibitor control); Bottom=0% inhibition derived from the NC (mean signal of Mcl-1+DMSO); Hillslope=Hill coefficient; and IC50=concentration of compound with 50% inhibition in relation to top/neutral control (NC).
Representative compounds of the present invention were tested according to the procedure as described above, with results as listed in the Table below (n.d. means not determined).

[2] = tested on: MOLP-8 human multiple myeloma cell line; experiment: Caspase-Glo 3/7 apoptosis induction assay in MOLP-8 cells; format: cell-based; settings: caspase-3/7 activity, 2 hours at 37° C., averaged over all runs on all batches, read-out: MOLP8 AC50
Excerpt: MCL-1 is a regulator of apoptosis and is highly over-expressed in tumor cells that escape cell death. The assay evaluates the cellular potency of small-molecule compounds targeting regulators of the apoptosis pathway, primarily MCL-1, Bfl-1, Bcl-2, and other proteins of the Bcl-2 family. Protein-protein inhibitors disrupting the interaction of anti-apoptotic regulators with BH3-domain proteins initiate apoptosis.
The Caspase-Glo® 3/7 Assay is a luminescent assay that measures caspase-3 and -7 activities in purified enzyme preparations or cultures of adherent or suspension cells. The assay provides a proluminescent caspase-3/7 substrate, which contains the tetrapeptide sequence DEVD. This substrate is cleaved to release aminoluciferin, a substrate of luciferase used in the production of light. Addition of the single Caspase-Glo® 3/7 Reagent in an “add-mix-measure” format results in cell lysis, followed by caspase cleavage of the substrate and generation of a “glow-type” luminescent signal.
This assay uses the MOLP-8 human multiple myeloma cell line, which is sensitive to MCL-1 inhibition.
Cell cultures were maintained between 0.2 and 2.0×10^6 cells/mL. The cells were harvested by collection in 50 mL conical tubes. The cells were then pelleted at 500 g for 5 mins before removing supernatant and resuspension in fresh pre-warmed culture medium. The cells were counted and diluted as needed.
The assay reagent was prepared by transferring the buffer solution to the substrate vial and mixing. The solution may be stored for up to 1 week at 4° C. with negligible loss of signal.
Compounds were delivered in assay-ready plates (Proxiplate) and stored at −20° C.
Assays always include 1 reference compound plate containing reference compounds. The plates were spotted with 40 nL of compounds (0.5% DMSO final in cells; serial dilution; 30 μM highest conc. 1/3 dilution, 10 doses, duplicates). The compounds were used at room temperature and 4 μL of pre-warmed media was added to all wells except column 2 and 23. The negative control was prepared by adding 1% DMSO in media. The positive control was prepared by adding the appropriate positive control compound in final concentration of 60 μM in media. The plate was prepared by adding 4 μL negative control to column 23, 4 μL positive control to column 2, and 4 μL cell suspension to all wells in the plate. The plate with cells was then incubated at 37° C. for 2 hours. The assay signal reagent is the Caspase-Glo solution described above, and 8 μL was added to all wells. The plates were then sealed and measured after 30 minutes.
The activity of a test compound was calculated as percent change in apoptosis induction as follows: […]

In the case of `COCCN(CCOC)CC1(OC)/C(F)=C/C[C@H](C)[C@@H](C)S(=O)(=O)NC(=O)c2ccc3c(c2)N(C[C@@H]2CCO[C@H]21)C[C@@]1(CCCc2cc(Cl)ccc21)CO3` (single isomer, unassigned) [Compound 18], the Ki [1] is reported as 0.096 nM and the AC50 ([2]; Homo sapiens, MOLP-8, 2 h) is reported as 412 nM.

`C[C@@H]1[C@@H](C)C/C=C/C(CO)[C@@H]2OCC[C@H]2CN2C[C@@]3(CCCc4cc(Cl)ccc43)COc3ccc(cc32)C(=O)NS1(=O)=O` (single isomer, unassigned) [Compound 15] gave a Ki [1] of 0.636 nM and an AC50 [2] of 2920 nM.

`C[C@@H]1[C@@H](C)C/C=C/C(O)[C@@H]2OCC[C@H]2CN2C[C@@]3(CCCc4cc(Cl)ccc43)COc3ccc(cc32)C(=O)NS1(=O)=O` (single isomer, unassigned) [Compound 19] showed a Ki [1] of 0.717 nM and an AC50 ([2]; Homo sapiens, MOLP-8, 2 h) of 752 nM.

Work on `COc1nn(C)cc1C(=O)NS1(=O)=NC(=O)c2ccc3c(c2)N(C[C@@H]2CCO[C@H]2C(OC)/C=C/C[C@H](C)C1)C[C@@]1(CCCc2cc(Cl)ccc21)CO3` (single isomer, unassigned) [Compound 11] yielded a Ki [1] of 0.94 nM and an AC50 [2] of 1310 nM.

In the case of `COC1/C(F)=C/C[C@H](C)[C@@H](C)S(=O)(=O)NC(=O)c2cnc3c(n2)N(C[C@@H]2CCO[C@@H]12)C[C@@]1(CCCc2cc(Cl)ccc21)CO3` (single isomer, unassigned) [Compound 13], the Ki [1] is reported as 35.5 nM and the AC50 [2] is reported as 15200 nM.

`COc1nn(C)cc1C(=O)NS1(=O)=NC(=O)c2ccc3c(c2)N(C[C@@H]2CCO[C@H]2C(OC)/C(F)=C/C[C@H](C)C1)C[C@@]1(CCCc2cc(Cl)ccc21)CO3` (single isomer, unassigned) [Compound 23] was tested, and the Ki [1] was 0.25 nM and the AC50 [2] was 2420 nM.

For `CO[C@H]1/C=C/C[C@H](C)[C@@H](C)S(=O)(=O)NC(=O)c2ccc3c(c2)N(C[C@@H]2CCO[C@H]21)C[C@@]1(CCCc2cc(Cl)ccc21)CO3` [Compound 3], the Ki [1] was 0.466 nM and the AC50 ([2]; Homo sapiens, MOLP-8, 2 h) was 432 nM.

For `COc1nn(C)cc1C(=O)NS1(=O)=NC(=O)c2ccc3c(c2)N(C[C@@H]2CCO[C@H]2C(OC)/C(F)=C/C[C@H](C)C1)C[C@@]1(CCCc2cc(Cl)ccc21)CO3` (single isomer, unassigned) [Compound 26], the Ki [1] was 5.12 nM and the AC50 [2] was > 5000 nM.
